Measured values taken from patent US20040039052A1, “Urinary incontinence therapy” (priority 1997, published 2004).

What was measured:
[1] = tested on: rats; conditions: cited from earlier work
[2] = tested on: normal human volunteers and patients with unstable detrusor; conditions: 10^−8M (0.01 μM) RTX intravesicular, cited from earlier work
[3] = tested on: patients having bladder hyperactivity; assay: 14-patient study: single intravesical RTX instillation; fill cystometry (MCC), urination diary; type: in vivo, human; conditions: for Bladder Capacity, % Change / Bladder Capacity, Change from Pre-RTX: Bladder Capacity <200 mL; for Bladder Capacity, % Change / Bladder Capacity, Change from Pre-RTX / Bladder Capacity: n 7; for Mean Incontinent Episodes/day, % Change / Mean Incontinent Episodes/day, Difference from Pre-RTX / Mean Incontinent Episodes/day: n = 8; for Mean incontinent episodes: Pre-RTX 2.1; for Mean bladder capacity: Pre-RTX 182; for Bladder Capacity: patients with Bladder Capacity <200 mL, Pre-RTX 86; for Mean Incontinent Episodes/day: Pre-RTX 3.6
Description: Clinical studies reported herein include the following: observations from the patient's urination diary and their overall assessment of bladder function, maximum cystometric capacity of the bladder, and daily urinary frequency and incontinence episodes. […] Useful and effective treatment is that which alleviates any of the symptoms associated with neurogenic urinary dysfunction.
Patients chosen for study were of either sex, between the ages of 30 and 75, and weighing between 60 kg and 110 kg. Patients were selected having bladder hyperactivity associated with spinal cord injury, multiple sclerosis, peripheral neuropathy, muscular dystrophy or bladder instability. Pregnant women were excluded from the study as were those exposed to any other investigational drug within 30 days of baseline, those exposed to drugs affecting bladder performance or detrusor function within 10 days of baseline, those with known chemical addiction, those with seizure activity or major psychiatric disorders, and those with clinically significant cardiovascular, renal or hepatic disease, upper respiratory disease, malignant disease or clinically significant abnormal clinical laboratory values. Patients taking anti-cholinergic drugs were generally excluded except in a rare instance at the discretion of the investigator, in which case the dosage of anti-cholinergic drug was not changed during the study. Patients previously treated with capsaicin were first monitored to insure a return to baseline parameters in the absence of capsaicin. Preliminary studies to determine RTX dosage efficacy were performed with patients who had previous experience with intravesical capsaicin administration for treatment of bladder hyperactivity. Once a dose range for the study was determined, both previously capsaicin-treated and -untreated patients were employed.
(§1) The molecular weight of RTX is 628.72 for the clinical studies described herein. A 10 μM stock solution, 6.3 μg/mL was prepared by dissolving 6.32 mg of 99.5% pure RTX in 1000 mL absolute ethanol. Solutions for therapeutic use were diluted from the ethanolic stock solution into sterile normal saline (0.9% w/v NaCl) or a saline-ethanol mixture such that the final solution was 10% (v/v) ethanol. Therapeutic efficacy was tested for RTX concentrations of 1 μM, 0.1 μM and 0.05 μM. […] Prior to administration, RTX solutions were sterilized by filtration.
Fill cystometry: A two-way 8 F urethral catheter was inserted in the bladder under clean conditions. The residual urine was emptied. Infusion of saline at body temperature was started at a constant speed of […]. Patients were asked to indicate the moment of first desire to void (FDV) and any other sensation. The infusion was stopped at compulsive desire to void and the infused volume taken as the maximal cystometric capacity (MCC). Bladder pressure at which MCC occurs was also recorded. A prophylactic antibiotic (ciprofloxacin, 500 mg every 8 hours) was given during the next 48 hours.
Ice-Water test: The patient was clean catheterized with a two-way urethral catheter. A volume of 50 ml of iced saline (or half of the MCC found in cystometry) was put in a catheter-irrigating syringe and injected into the bladder during a period of 20 seconds. Bladder pressure was constantly measured. The test was considered positive (abnormal) if an involuntary bladder contraction was recorded during the next 60 seconds.
RTX Instillation: An 18 or 20 F three-way Foley catheter was used. The balloon was inflated to 20 ml and maintained gently pulled against the bladder neck to reduce leakage of RTX.
Up to 100 mL RTX solution was introduced into an emptied bladder, retained in the bladder for 30 minutes, then the bladder was emptied and rinsed with normal saline. Prior to treatment, baseline measurements of MCC, micturition frequency and ice water test response made. […]
Patients 1, 2, 6, 7, 8 and 13 received 0.05 μM RTX. The rest received 0.1 μM RTX. […]

[4] = tested on: bladder afferents; conditions: rats; intravesicular 10-100 μmol; cited from earlier work
[5] = solubility and stability of RTX solutions; type: physicochemical
Procedure: as §1
However, the compounds are soluble in ethanol. Pure ethanol cannot be instilled into the bladder because it causes severe pain and irritation of the bladder mucosa. […] The foregoing solution, after filter sterilization, can be directly instilled into the urinary bladder. A typical instillation volume is 100 ml, although it is possible to instill somewhat larger or smaller volumes, as is understood in the art.

[6] = day 14, Frequency ≧ 10/day, n = 7
[7] = day 14, Incontinence > episode/day
[8] = day 14, intent-to-treat, n = 14
[9] = day 30, Frequency ≧ 10/day, n = 7
[10] = day 30, Incontinence > episode/day
[11] = day 30, intent-to-treat, n = 14
[12] = day 60, Frequency ≧ 10/day, n = 7
[13] = day 60, Incontinence > episode/day
[14] = day 60, intent-to-treat, n = 14
[15] = day 90, Frequency ≧ 10/day, n = 7
[16] = day 90, Incontinence > episode/day
[17] = day 90, intent-to-treat, n = 14
[18] = patients able to do spontaneous micturitions

C=C(C)[C@]12C[C@@H](C)[C@@]34O[C@](Cc5ccccc5)(O[C@@H]1[C@@H]3C=C(COC(=O)Cc1ccc(O)c(OC)c1)C[C@]1(O)C(=O)C(C)=C[C@@H]41)O2 [RTX, resiniferatoxin]
pain upon intravesical administration [1]: pain induced by intravesical administration of RTX
sensations upon administration ([2]; human subjects): no micturition reflex or burning upon administration
volume required to elicit first desire to void ([2]; patients having unstable detrusor): Three of five patients having unstable detrusor reported an increased volume
patients with meaningful effects, decreases in frequency, urge or wetness ([3]; 14-patient study): 71%
MCC ([3]; Patient #10 (spinal cord injury), 100 μM RTX instillation, day 14, Baseline MCC 80 ml): 500 mL
leaks on the worst day ([3]; Patient #10, 100 μM RTX instillation, before treatment incontinence episodes more than 7 times per day): 2-3 times per day
incontinence episodes, Case #11 ([3]; after RTX (0.1 μM), no improvement during placebo): substantially decreased incontinence episodes
symptoms evoked by RTX instillation ([3]; all patients, noted by a few patients during the first minutes of the treatment): itching or mild discomfort were the only symptoms evoked by RTX
incontinence episodes, Case #7 ([3]; between days 14 and 30 post-treatment, 0.05 μM, prior: at least once between catheterizations): only one incontinence episode
Bladder Capacity, % Change ([3]; day 14): +224%
Bladder Capacity, Change from Pre-RTX ([3]; day 14): +193 mLs
Mean Frequency/day, % Change [3, 6]: −34%
Mean Frequency/day, Change from Pre-RTX [3, 6]: -5.3 day⁻¹
Mean Incontinent Episodes/day, % Change [3, 7]: −44%
Mean Incontinent Episodes/day, Difference from Pre-RTX [3, 7]: -1.6 day⁻¹
Mean Frequency/day ([3]; day 14, intent-to-treat analysis, n = 14, Pre-RTX 9.1): 6.9 day⁻¹
Mean Frequency/day, Difference from pre-RTX [3, 8]: -2.2 day⁻¹
Mean bladder capacity, Difference from pre-RTX [3, 8]: 95 mL
Mean incontinent episodes, Difference from pre-RTX [3, 8]: −1.0
Mean incontinent episodes [3, 8]: 1.0
Mean bladder capacity [3, 8]: 277 mL
Bladder Capacity ([3]; day 14, single instillation 0.05 or 0.1 μM): 279 mLs
Mean Frequency/day ([3]; day 14, patients with Frequency ≧ 10/day, n = 7, Pre-RTX 15.7): 10.4 day⁻¹
Mean Incontinent Episodes/day ([3]; day 14, patients with Incontinence > episode/day): 2.0 day⁻¹
Bladder Capacity, % Change ([3]; day 30): +156%
Bladder Capacity, Change from Pre-RTX ([3]; day 30): +134 mLs
Mean Frequency/day, % Change [3, 9]: −28%
Mean Frequency/day, Change from Pre-RTX [3, 9]: -4.4 day⁻¹
Mean Frequency/day ([3]; day 30, Frequency ≧ 10/day, n = 7, Pre-RTX 15.7): 11.3 day⁻¹
Mean Incontinent Episodes/day, % Change [3, 10]: −64%
Mean Incontinent Episodes/day, Difference from Pre-RTX [3, 10]: -2.3 day⁻¹
Mean Incontinent Episodes/day [3, 10]: 1.3 day⁻¹
Mean Frequency/day, Difference from pre-RTX [3, 11]: -1.6 day⁻¹
Mean bladder capacity, Difference from pre-RTX [3, 11]: 64 mL
Mean incontinent episodes, Difference from pre-RTX [3, 11]: −1.4
Mean incontinent episodes [3, 11]: 0.7
Mean Frequency/day ([3]; day 30, intent-to-treat, n = 14, Pre-RTX 9.1): 7.5 day⁻¹
Mean bladder capacity [3, 11]: 247 mL
Bladder Capacity ([3]; day 30): 220 mLs
Bladder Capacity, % Change ([3]; day 60): +159%
Bladder Capacity, Change from Pre-RTX ([3]; day 60): +137 mLs
Mean Frequency/day, % Change [3, 12]: −34%
Mean Frequency/day, Change from Pre-RTX [3, 12]: -5.3 day⁻¹
Mean Frequency/day ([3]; day 60, Frequency ≧ 10/day, n = 7, Pre-RTX 15.7): 10.4 day⁻¹
Mean Incontinent Episodes/day, % Change [3, 13]: −67%
Mean Incontinent Episodes/day, Difference from Pre-RTX [3, 13]: -2.4 day⁻¹
Mean Incontinent Episodes/day [3, 13]: 1.2 day⁻¹
Mean Frequency/day, Difference from pre-RTX [3, 14]: -2.1 day⁻¹
Mean bladder capacity, Difference from pre-RTX [3, 14]: 45 mL
Mean incontinent episodes, Difference from pre-RTX [3, 14]: −1.7
Mean incontinent episodes [3, 14]: 0.4
Mean Frequency/day ([3]; day 60, intent-to-treat, n = 14, Pre-RTX 9.1): 7.0 day⁻¹
Mean bladder capacity [3, 14]: 228 mL
Bladder Capacity ([3]; day 60): 223 mLs
Bladder Capacity, Change from Pre-RTX ([3]; day 90): +191 mLs
Mean Frequency/day, % Change [3, 15]: −31%
Mean Frequency/day, Change from Pre-RTX [3, 15]: -4.9 day⁻¹
Mean Frequency/day ([3]; day 90, Frequency ≧ 10/day, n = 7, Pre-RTX 15.7): 10.8 day⁻¹
Mean Incontinent Episodes/day, % Change [3, 16]: −58%
Mean Incontinent Episodes/day, Difference from Pre-RTX [3, 16]: -2.1 day⁻¹
Mean Incontinent Episodes/day [3, 16]: 1.5 day⁻¹
Mean Frequency/day, Difference from pre-RTX [3, 17]: -2.6 day⁻¹
Mean bladder capacity, Difference from pre-RTX [3, 17]: 148 mL
Mean incontinent episodes, Difference from pre-RTX [3, 17]: −1.5
Mean incontinent episodes [3, 17]: 0.6
Mean Frequency/day ([3]; day 90, intent-to-treat, n = 14, Pre-RTX 9.1): 6.2 day⁻¹
Mean bladder capacity [3, 17]: 330 mL
Bladder Capacity ([3]; day 90): 277 mLs
positive benefit on incontinent episodes ([3]; eight evaluable patients with more than one incontinent episode/day): only one did not show a positive benefit
patients in whom bladder capacity (MCC) increased ([3]; out of the 14 patients): 11
duration of decreased frequency post-treatment [3, 18]: up to 60 days
improvement in MCC [3, 18]: All patients in the group but one (#1) showed clear improvement (increase) in MCC
reported improvement after RTX administration ([3]; patients requiring self-catheterization or supra-pubic maneuvers (#4, 5, 7, 8 and 11)): all but one (#4) reported improvement
full continence after RTX instillation ([3]; patients who were entirely incontinent (#3, 4, 6, 9, 12, 13 and 14)): five (#3, 6 and 9, 12 and 13) achieved full continence
duration of effect of a single instillation ([3]; single instillation): up to 6 months
desensitization of bladder afferents [4]: long-lasting desensitization of bladder afferents
stability of stock solution ([5]; absolute ethanol, stored in the dark, preferably refrigerated): stably maintained
solubility in water ([5]; completely aqueous medium, therapeutic dose): insufficiently soluble in water
stability of solutions ([5]; ethanolic stock and dilutions in saline, 10% (v/v) ethanol, 4° C., shielded from light): stable under refrigeration (4° C.) shielded from light
solubility after dilution of ethanolic solution into aqueous medium ([5]; normal saline, not greater than 20% (v/v) ethanol): RTX remains in solution
